Source: US6673827B1, “Methods of treating fungal infections with inhibitors of NAD synthetase enzyme” (priority 1999, dated 2004)
Values after ≈ are worked out from the molar mass of the structure shown. Values joined by “and” are separate entries in the source; they are usually repeats but may differ in a detail not shown here. Identical values can stand only once. Like-named read-outs stand apart in the source and are kept apart here.

What was measured:
Format in all cases: cell-based
[1] = tested on: Torulopsis glabrata ERH-BC9938274; test: In vitro study of inhibition of growth and lethality against yeast (MIC/MLC susceptibility test), isolate F; details: for MIC: Nakaseomyces glabratus; for Minimum Inhibitory Conc. (MIC), 24 hr.: read at 24 hr; for Minimum Lethal Concentration (MLC), F: Table 4B summary, isolate F
[2] = tested on: Torulopsis glabrata JHC-BC9951635; test: In vitro study of inhibition of growth and lethality against yeast (MIC/MLC susceptibility test), isolate E; details: for MIC: Nakaseomyces glabratus; for MIC / Minimum Inhibitory Conc. (MIC), 24 hr. / Minimum Inhibitory Conc. (MIC), 48 hr.: isolate assigned by line order; for Minimum Lethal Concentration (MLC), E: Table 4B summary, isolate E
[3] = tested on: Candida tropicalis ATCC 28707; test: In vitro study of inhibition of growth and lethality against yeast (MIC/MLC susceptibility test), isolate B; details: for Minimum Lethal Concentration (MLC), B: Table 4B summary, isolate B
[4] = tested on: Candida albicans LH-000664533; test: In vitro study of inhibition of growth and lethality against yeast (MIC/MLC susceptibility test), isolate D; details: for Minimum Lethal Concentration (MLC), D: Table 4B summary, isolate D
[5] = tested on: Candida albicans KJP-000531594; test: In vitro study of inhibition of growth and lethality against yeast (MIC/MLC susceptibility test), isolate C; details: for Minimum Inhibitory Conc. (MIC), 24 hr. / MIC / Minimum Inhibitory Conc. (MIC), 48 hr.: Candida albicans; for Minimum Lethal Concentration (MLC), C: Table 4B summary, isolate C
[6] = tested on: Cryptococcus neoformans SLP-BC0012854; test: In vitro study of inhibition of growth and lethality against yeast (MIC/MLC susceptibility test), isolate H; details: for Minimum Lethal Concentration (MLC), H: Table 4B summary, isolate H
[7] = tested on: Candida tropicalis ATCC 750; test: In vitro study of inhibition of growth and lethality against yeast (MIC/MLC susceptibility test), isolate A; details: for Minimum Lethal Concentration (MLC), A: Table 4B summary, isolate A
[8] = tested on: Cryptococcus neoformans DLB-1027594CNC; test: In vitro study of inhibition of growth and lethality against yeast (MIC/MLC susceptibility test), isolate G; details: for MIC: DLB1027594CNC; for Minimum Lethal Concentration (MLC), G: Table 4B summary, isolate G
[9] = Torulopsis glabrata, 1st pair of lines, isolate assigned by line order
[10] = Torulopsis glabrata, 2nd pair of lines, read at 24 hr
[11] = 1st pair of lines, read at 24 hr, isolate not given, assigned by line order and MLC of Table 4B
[12] = Torulopsis glabrata, 2nd pair of lines, read at 48 hr
[13] = 1st pair of lines, read at 48 hr, isolate assigned by line order
[14] = Cryptococcus neoformans, 1st pair of lines, read at 72 hr, isolate assigned by line order

With `COC(=O)c1cc2cc(OCc3ccccc3)ccc2n1CCCCCCCCC[n+]1ccccc1` [Compound 230] the MIC ([1]; ERHBC9938274, 24 h, read-out: Minimum Inhibitory Conc. (MIC), 24 hr., Torulopsis glabrata, 1st pair of lines, read at 24 hr, isolate assigned by line order) was 1 µg/mL, the MIC ([1]; ERHBC9938274, 48 h, read-out: Minimum Inhibitory Conc. (MIC), 48 hr., Torulopsis glabrata, 1st pair of lines, read at 48 hr, isolate assigned by line order) was 2 µg/mL and the “Minimum Inhibitory Conc. (MIC), 24 hr.” value [1, 9] was 2 µg/mL. The MIC ([2]; JHCBC9951635, 24 h, read-out: Minimum Inhibitory Conc. (MIC), 24 hr., Torulopsis glabrata, 2nd pair of lines, read at 24 hr) was 1 µg/mL, the MIC ([2]; JHCBC9951635, 48 h, read-out: Minimum Inhibitory Conc. (MIC), 48 hr., Torulopsis glabrata, 2nd pair of lines, read at 48 hr) was 2 µg/mL and the “Minimum Inhibitory Conc. (MIC), 24 hr.” value [2, 10] was 2 µg/mL. The MIC ([3]; Candida tropicalis, ATCC28707, 24 h, read-out: Minimum Inhibitory Conc. (MIC), 24 hr.) was 0.5 µg/mL, the MIC ([3]; Candida tropicalis, ATCC28707, 48 h, read-out: Minimum Inhibitory Conc. (MIC), 48 hr.) was 0.5 µg/mL and the MIC ([4]; Candida albicans, LH000664533, 24 h, read-out: Minimum Inhibitory Conc. (MIC), 24 hr.) was 1 µg/mL. The MIC ([4]; Candida albicans, LH000664533, 48 h, read-out: Minimum Inhibitory Conc. (MIC), 48 hr.) was 1 µg/mL, the “Minimum Inhibitory Conc. (MIC), 24 hr.” value [5, 11] was 0.5 µg/mL and the MIC ([5]; KJP000531594, 24 h, read-out: Minimum Inhibitory Conc. (MIC), 24 hr., Candida albicans, 1st pair of lines, read at 24 hr, isolate not given, assigned by line order and MLC of Table 4B) was 1 µg/mL. For the same molecule, the MIC ([5]; KJP000531594, 48 h, read-out: Minimum Inhibitory Conc. (MIC), 48 hr., Candida albicans, 1st pair of lines, read at 48 hr, isolate assigned by line order) was 1 µg/mL, the MIC ([6]; Cryptococcus neoformans, SLPBC0012854, 48 h, read-out: Minimum Inhibitory Conc. (MIC), 48 hr.) was 1 µg/mL and the MIC ([6]; Cryptococcus neoformans, SLPBC0012854, 72 h, read-out: Minimum Inhibitory Conc. (MIC), 72 hr.) was 1 µg/mL. For the same molecule, the MIC ([7]; Candida tropicalis, ATCC750, 24 h, read-out: Minimum Inhibitory Conc. (MIC), 24 hr.) was 1 µg/mL, the MIC ([7]; Candida tropicalis, ATCC750, 48 h, read-out: Minimum Inhibitory Conc. (MIC), 48 hr.) was 1 µg/mL and the MIC ([8]; Cryptococcus neoformans, 48 h, read-out: Minimum Inhibitory Conc. (MIC), 48 hr.) was 1 µg/mL. It also gave an MIC ([8]; Cryptococcus neoformans, 72 h, read-out: Minimum Inhibitory Conc. (MIC), 72 hr.) of 1 µg/mL.

In the case of `Fc1cc(F)c2[nH]c(CCCC[n+]3cccc4ccccc43)cc2c1` [Compound 0409], the “Minimum Lethal Concentration (MLC), F” value [1] is reported as 2 µg/mL, the “Minimum Lethal Concentration (MLC), E” value [2] is reported as 2 µg/mL and the “Minimum Lethal Concentration (MLC), B” value [3] is reported as 0.5 µg/mL. For the same molecule, the “Minimum Lethal Concentration (MLC), D” value [4] was 1 µg/mL, the “Minimum Lethal Concentration (MLC), C” value [5] was 1 µg/mL and the “Minimum Lethal Concentration (MLC), H” value [6] was 2 µg/mL. For the same molecule, the “Minimum Lethal Concentration (MLC), A” value [7] was 1 µg/mL and the “Minimum Lethal Concentration (MLC), G” value [8] was 2 µg/mL.

For `COC(=O)c1cc2cc(OCc3ccccc3)ccc2n1CCCCCCOC(=O)c1cccnc1` [Compound 0951], the “Minimum Lethal Concentration (MLC), F” value [1] was 2 µg/mL, the “Minimum Lethal Concentration (MLC), E” value [2] was 2 µg/mL and the “Minimum Lethal Concentration (MLC), B” value [3] was 1 µg/mL. The “Minimum Lethal Concentration (MLC), D” value [4] was 2 µg/mL, the “Minimum Lethal Concentration (MLC), C” value [5] was 1 µg/mL and the “Minimum Lethal Concentration (MLC), H” value [6] was 4 µg/mL. For the same molecule, the “Minimum Lethal Concentration (MLC), A” value [7] was 1 µg/mL and the “Minimum Lethal Concentration (MLC), G” value [8] was 4 µg/mL.

With `OC(Cn1cncn1)(Cn1cncn1)c1ccc(F)cc1F` [Fluconazole] the MIC ([2]; JHCBC9951635, 24 h, Torulopsis glabrata, 2nd pair of lines, read at 24 hr, read-out: Minimum Inhibitory Conc. (MIC), 24 hr.) was 2 µg/mL (≈ 6.53 µM), the MIC ([2]; JHCBC9951635, 48 h, Torulopsis glabrata, 2nd pair of lines, read at 48 hr, read-out: Minimum Inhibitory Conc. (MIC), 48 hr.) was 8 µg/mL (≈ 26.1 µM) and the “Minimum Inhibitory Conc. (MIC), 48 hr.” value [2, 12] was 4 µg/mL. The “Minimum Inhibitory Conc. (MIC), 48 hr.” value [5, 13] was 2 µg/mL, the MIC ([5]; KJP000531594, 24 h, 1st pair of lines, read at 24 hr, isolate not given, assigned by line order and MLC of Table 4B, read-out: Minimum Inhibitory Conc. (MIC), 24 hr.) was 0.5 µg/mL (≈ 1.63 µM) and the MIC ([5]; KJP000531594, 48 h, 1st pair of lines, read at 48 hr, isolate assigned by line order, read-out: Minimum Inhibitory Conc. (MIC), 48 hr.) was 1 µg/mL (≈ 3.27 µM). It also gave an MIC ([6]; Cryptococcus neoformans, SLPBC0012854, 48 h, Cryptococcus neoformans, 2nd pair of lines, read at 48 hr, isolate assigned by line order, read-out: Minimum Inhibitory Conc. (MIC), 48 hr.) of 4 µg/mL (≈ 13.1 µM), an MIC ([6]; Cryptococcus neoformans, SLPBC0012854, 72 h, Cryptococcus neoformans, 2nd pair of lines, read at 72 hr, isolate assigned by line order, read-out: Minimum Inhibitory Conc. (MIC), 72 hr.) of 4 µg/mL (≈ 13.1 µM) and an MIC ([7]; Candida tropicalis, ATCC750, 24 h, Candida tropicalis, 2nd pair of lines, read at 24 hr, isolate assigned by line order, read-out: Minimum Inhibitory Conc. (MIC), 24 hr.) of 1 µg/mL (≈ 3.27 µM). The MIC ([7]; Candida tropicalis, ATCC750, 48 h, Candida tropicalis, 2nd pair of lines, read at 48 hr, isolate assigned by line order, read-out: Minimum Inhibitory Conc. (MIC), 48 hr.) was 4 µg/mL (≈ 13.1 µM), the “Minimum Inhibitory Conc. (MIC), 72 hr.” value [8, 14] was 64 µg/mL and the MIC ([8]; Cryptococcus neoformans, 48 h, Cryptococcus neoformans, 1st pair of lines, read at 48 hr, isolate assigned by line order, read-out: Minimum Inhibitory Conc. (MIC), 48 hr.) was greater than 64 µg/mL. The MIC ([8]; Cryptococcus neoformans, 72 h, Cryptococcus neoformans, 1st pair of lines, read at 72 hr, isolate assigned by line order, read-out: Minimum Inhibitory Conc. (MIC), 72 hr.) was greater than 64 µg/mL.

`C[C@@H]1[C@H](O)[C@@H](C)/C=C/C=C/C=C/C=C/C=C/C=C/C=C/[C@H](O[C@@H]2O[C@H](C)[C@@H](O)[C@H](N)[C@@H]2O)C[C@@H]2O[C@](O)(C[C@@H](O)C[C@@H](O)[C@H](O)CC[C@@H](O)C[C@@H](O)CC(=O)O[C@H]1C)C[C@H](O)[C@H]2C(=O)O` [Amphotericin B] was tested, and the “Minimum Inhibitory Conc. (MIC), 24 hr.” value [1, 9] was 0.5 µg/mL, the “Minimum Inhibitory Conc. (MIC), 48 hr.” value ([1]; Torulopsis glabrata, 1st pair of lines, read at 48 hr, isolate assigned by line order) was 1 µg/mL and the “Minimum Inhibitory Conc. (MIC), 24 hr.” value [2, 10] was 0.5 µg/mL. For the same molecule, the “Minimum Inhibitory Conc. (MIC), 48 hr.” value [2, 12] was 1 µg/mL and 0.5 µg/mL, the “Minimum Inhibitory Conc. (MIC), 24 hr.” value ([3]; Candida tropicalis, 1st pair of lines, read at 24 hr, isolate assigned by line order) was 2 µg/mL and the “Minimum Inhibitory Conc. (MIC), 48 hr.” value ([3]; Candida tropicalis, 1st pair of lines, read at 48 hr, isolate assigned by line order) was 4 µg/mL. For the same molecule, the “Minimum Inhibitory Conc. (MIC), 24 hr.” value ([4]; Candida albicans, 2nd pair of lines, read at 24 hr, isolate assigned by line order) was 0.5 µg/mL, the “Minimum Inhibitory Conc. (MIC), 48 hr.” value ([4]; Candida albicans, 2nd pair of lines, read at 48 hr, isolate assigned by line order) was 0.5 µg/mL and the “Minimum Inhibitory Conc. (MIC), 24 hr.” value [5, 11] was 0.5 µg/mL. The “Minimum Inhibitory Conc. (MIC), 48 hr.” value [5, 13] was 1 µg/mL, the “Minimum Inhibitory Conc. (MIC), 48 hr.” value ([6]; Cryptococcus neoformans, 2nd pair of lines, read at 48 hr, isolate assigned by line order) was 0.5 µg/mL and 0.25 µg/mL and the “Minimum Inhibitory Conc. (MIC), 24 hr.” value ([7]; Candida tropicalis, 2nd pair of lines, read at 24 hr, isolate assigned by line order) was 0.5 µg/mL. For the same molecule, the “Minimum Inhibitory Conc. (MIC), 48 hr.” value ([7]; Candida tropicalis, 2nd pair of lines, read at 48 hr, isolate assigned by line order) was 0.5 µg/mL and 1 µg/mL, the “Minimum Inhibitory Conc. (MIC), 48 hr.” value ([8]; Cryptococcus neoformans, 1st pair of lines, read at 48 hr, isolate assigned by line order) was 0.25 µg/mL and the “Minimum Inhibitory Conc. (MIC), 72 hr.” value [8, 14] was 0.25 µg/mL.
